Source: patent US10703733B2, “MCL-1 inhibitors” (Gilead Sciences, Inc., priority 2018, dated 2020)
pEC50, pIC50: −log10 of the molar value. Where two headings read alike, the source gives them in different places.

Key:
[1] = molecular target: MCL-1/Bim interaction (recombinant human MCL-1 protein, residues 171-327; biotinylated human Bim peptide, residues 51-76) (Homo sapiens (Human), UniProt Q07820); experiment: MCL-1/Bim Binding AlphaLISA Assay; settings: 0.0625 nM 6xHis-Mcl-1 (171-327), 0.0625 nM biotinylated-Bim peptide
Method in brief: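 AlphaLISA with 0.0625 nM His-tagged MCL-1 and 0.0625 nM biotin-Bim peptide in 20 mM Hepes pH 7.5, 150 mM NaCl, 0.002% Brij 35, 1 mM DTT, 0.01% BSA. Compound preincubated 1 h with MCL-1, Bim added for 2 h, then acceptor and donor beads 1 h each.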

[2] = system: SKBR3 cells; experiment: SKBR3 Cell Viability Assay (CellTiter Glo); format: cell-based; settings: CellTiter Glo luminescence, read-out: MCL-1 CV SKBR3 EC50
Method in brief: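 SKBR3 cells (6,000/well) in McCoy 5A + 10% FBS exposed to serially diluted compound for 72 h at 37° C., 5% CO2. Viability by CellTiter Glo luminescence; % inhibition normalized to DMSO (negative) and 10 μM puromycin (positive).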

MCL-1/Bim interaction (recombinant human MCL-1 protein, residues 171-327; biotinylated human Bim peptide, residues 51-76), sequence (Q07820 171-327): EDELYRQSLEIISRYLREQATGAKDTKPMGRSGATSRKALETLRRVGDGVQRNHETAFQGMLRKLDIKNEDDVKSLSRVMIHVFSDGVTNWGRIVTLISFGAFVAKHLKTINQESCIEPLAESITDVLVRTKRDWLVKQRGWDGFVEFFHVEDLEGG

Row | SMILES | pIC50 [1] | pEC50 ([2]; Homo sapiens, SK-BR-3, 72 h) | pEC50 ([2]; 72 hours)
1 | CO[C@H]1/C=C/CCC[S@@](=O)(NC(=O)C#CC(C)(C)C)=NC(=O)c2ccc3c(c2)N(C[C@@H]2CC[C@H]21)C[C@@]1(CCCc2cc(Cl)ccc21)CO3 [Example 36] | 8.09 | 5.00 | 
2 | CC#CC(=O)N[S@@]1(=O)=NC(=O)c2ccc3c(c2)N(C[C@@H]2CC[C@H]2[C@@H](OC)/C=C/CCC1)C[C@@]1(CCCc2cc(Cl)ccc21)CO3 [Example 33] | 8.54 | 5.13 | 
3 | CC[C@H]1C/C=C/[C@H](OC)[C@@H]2CC[C@H]2CN2C[C@@]3(CCCc4cc(Cl)ccc43)COc3ccc(cc32)C(=O)N=[S@](=O)(NC(=O)c2cnn(C)c2)C1 [Example 201] | 10.38 | 6.99 | 
4 | CCc1nn(C)cc1C(=O)N[S@@]1(=O)=NC(=O)c2ccc3c(c2)N(C[C@@H]2CC[C@H]2[C@@H](OC)/C=C/C[C@H](C)C1)C[C@@]1(CCCc2cc(Cl)ccc21)CO3 [Example 187] | 9.97 | 7.37 | 
5 | CO[C@H]1/C=C/CCC[S@](=O)(NC(=O)[C@@H]2C[C@H]2c2ccnn2C)=NC(=O)c2ccc3c(c2)N(C[C@@H]2CC[C@H]21)C[C@@]1(CCCc2cc(Cl)ccc21)CO3 [Example 84] | 10.00 |  | 6.11
6 | CO[C@H]1/C=C/C[C@H](C)C[S@@](=O)(NC(=O)[C@H]2C[C@@H](C(C)(C)O)C2)=NC(=O)c2ccc3c(c2)N(C[C@@H]2CC[C@H]21)C[C@@]1(CCCc2cc(Cl)ccc21)CO3 [Example 178] | 9.85 | 6.84 | 
7 | CO[C@H]1/C=C/CCC[S@@](=O)(NC(=O)Cc2cn3ccccc3n2)=NC(=O)c2ccc3c(c2)N(C[C@@H]2CC[C@H]21)C[C@@]1(CCCc2cc(Cl)ccc21)CO3 [Example 86] | 8.74 | 5.31 | 
8 | CO[C@H]1/C=C/C[C@H](C)C[S@@](=O)(NC(=O)c2cc3n(c2)CCC3)=NC(=O)c2ccc3c(c2)N(C[C@@H]2CC[C@H]21)C[C@@]1(CCCc2cc(Cl)ccc21)CO3 [Example 136] | 9.74 | 7.12 | 
9 | CCC(=O)N[S@]1(=O)=NC(=O)c2ccc3c(c2)N(C[C@@H]2CC[C@H]2[C@@H](OCCN2CCOCC2)/C=C/CCC1)C[C@@]1(CCCc2cc(Cl)ccc21)CO3 [Example 66] | 8.57 |  | 5.23
10 | CCn1nccc1CCC(=O)N[S@@]1(=O)=NC(=O)c2ccc3c(c2)N(C[C@@H]2CC[C@H]2[C@@H](OC)/C=C/CCC1)C[C@@]1(CCCc2cc(Cl)ccc21)CO3 [Example 45] | 10.00 | 6.72 | 
11 | CO[C@H]1/C=C/C[C@H](C)C[S@@](=O)(NC(=O)N[C@H]2C[C@@H]2CO)=NC(=O)c2ccc3c(c2)N(C[C@@H]2CC[C@H]21)C[C@@]1(CCCc2cc(Cl)ccc21)CO3 [Example 171] | 10.48 | 6.89 | 
12 | COc1c(C(=O)N[S@@]2(=O)=NC(=O)c3ccc4c(c3)N(C[C@@H]3CC[C@H]3[C@@H](OC)/C=C/C[C@H](C)C2)C[C@@]2(CCCc3cc(Cl)ccc32)CO4)cn2c1C[C@@H](OC)C2 [Example 224] | 9.71 | 7.08 | 
13 | CO[C@H]1/C=C/C[C@H](C)[C@@H](C)[S@@](=O)(NC(=O)c2cc3n(c2)CCOC3)=NC(=O)c2ccc3c(c2)N(C[C@@H]2CC[C@H]21)C[C@@]1(CCCc2cc(Cl)ccc21)CO3 [Example 137] | 9.31 | 6.98 | 
14 | COCCNC(=O)N[S@@]1(=O)=NC(=O)c2ccc3c(c2)N(C[C@@H]2CC[C@H]2[C@@H](OC)/C=C/C[C@H](C)C1)C[C@@]1(CCCc2cc(Cl)ccc21)CO3 [Example 132] | 10.42 | 7.14 | 
15 | CCO[C@]1(C)C[C@H](NC(=O)N[S@@]2(=O)=NC(=O)c3ccc4c(c3)N(C[C@@H]3CC[C@H]3[C@@H](OC)/C=C/C[C@H](C)C2)C[C@@]2(CCCc3cc(Cl)ccc32)CO4)C1 [Example 225] | 10.37 | 7.29 | 
16 | CO[C@H]1/C=C/C[C@H](C)C[S@@](=O)(NC(=O)N[C@@H]2C[C@@H]2C)=NC(=O)c2ccc3c(c2)N(C[C@@H]2CC[C@H]21)C[C@@]1(CCCc2cc(Cl)ccc21)CO3 [Example 162] | 9.74 | 6.86 | 
17 | CO[C@H]1/C=C/CCC[S@](N)(=O)=NC(=O)c2ccc3c(c2)N(C[C@@H]2CC[C@H]21)C[C@@]1(CCCc2cc(Cl)ccc21)CO3 [Example 6] | 7.56 |  | 5.06
18 | CO[C@H]1/C=C/C[C@H](C)C[S@@](=O)(NC(=O)N[C@H]2C[C@](C)(O)C2)=NC(=O)c2ccc3c(c2)N(C[C@@H]2CC[C@H]21)C[C@@]1(CCCc2cc(Cl)ccc21)CO3 [Example 172] | 10.66 | 6.90 | 
19 | COc1c(C(=O)N[S@@]2(=O)=NC(=O)c3ccc4c(c3)N(C[C@@H]3CC[C@H]3[C@@H](OC)/C=C/C[C@H](C)C2)C[C@@]2(CCCc3cc(Cl)ccc32)CO4)cn2c1COCC2 [Example 191] | 9.99 | 6.91 | 

The remaining lines, values ahead:

Row | pIC50 [1] | pEC50 ([2]; Homo sapiens, SK-BR-3, 72 h) | pEC50 ([2]; 72 hours) | SMILES
20 | 9.83 | 6.76 |  | CO[C@H]1/C=C/C[C@H](C)C[S@@](=O)(NC(=O)[C@@]23COCC2C3)=NC(=O)c2ccc3c(c2)N(C[C@@H]2CC[C@H]21)C[C@@]1(CCCc2cc(Cl)ccc21)CO3 (some centres unmarked) [Example 446]
21 | 10.21 | 7.17 |  | CO[C@H]1/C=C/C[C@H](C)C[S@@](=O)(NC(=O)N2CC(CC(F)F)C2)=NC(=O)c2ccc3c(c2)N(C[C@@H]2CC[C@H]21)C[C@@]1(CCCc2cc(Cl)ccc21)CO3 [Example 355]
22 | 10.24 | 6.28 |  | COc1nn(C)cc1C(=O)N[S@@]1(=O)=NC(=O)c2ccc3c(c2)N(C[C@@H]2CC[C@H]2[C@@H](OC)/C=C/[C@H](OC(F)F)[C@H](C)C1)C[C@@]1(CCCc2cc(Cl)ccc21)CO3 [Example 400]
23 | 10.16 | 7.16 |  | COc1nn(C)cc1C(=O)N[S@@]1(=O)=NC(=O)c2ccc3c(c2)N(C[C@@H]2CC[C@H]2[C@@H](OC)/C=C\C[C@H](C)C1)C[C@@]1(CCCc2cc(Cl)ccc21)CO3 [Example 228]
24 | 10.40 | 7.66 |  | COc1nn(C)cc1C(=O)N[S@@]1(=O)=NC(=O)c2ccc3c(c2)N(C[C@@H]2CC[C@H]2[C@@H](OC)/C=C/[C@H](OCCN2CCOCC2)[C@H](C)C1)C[C@@]1(CCCc2cc(Cl)ccc21)CO3 [Example 295]
25 | 9.52 | 6.91 |  | CO[C@H]1/C=C/C[C@H](C)C[S@@](=O)(NC(=O)NC2CC3(C2)CC(F)(F)C3)=NC(=O)c2ccc3c(c2)N(C[C@@H]2CC[C@H]21)C[C@@]1(CCCc2cc(Cl)ccc21)CO3 [Example 437]
26 | 10.11 | 7.09 |  | COc1ncc(C(=O)N[S@@]2(=O)=NC(=O)c3ccc4c(c3)N(C[C@@H]3CC[C@H]3[C@@H](OC)/C=C/C[C@H](C)C2)C[C@@]2(CCCc3cc(Cl)ccc32)CO4)cn1 [Example 273]
27 | 10.25 | 7.07 |  | COc1nn(C2CC2)cc1C(=O)N[S@@]1(=O)=NC(=O)c2ccc3c(c2)N(C[C@@H]2CC[C@H]2[C@@H](OC)/C=C/C[C@H](C)C1)C[C@@]1(CCCc2cc(Cl)ccc21)CO3 [Example 262]
28 | 10.41 | 7.42 |  | CO[C@H]1/C=C/C[C@H](C)C[S@@](=O)(NC(=O)N2CC(N(C)C)C2)=NC(=O)c2ccc3c(c2)N(C[C@@H]2CC[C@H]21)C[C@@]1(CCCc2cc(Cl)ccc21)CO3 [Example 333]
29 | 10.26 | 7.12 |  | CO[C@@H]1CCN(C(=O)N[S@@]2(=O)=NC(=O)c3ccc4c(c3)N(C[C@@H]3CC[C@H]3[C@@H](OC)/C=C/C[C@H](C)C2)C[C@@]2(CCCc3cc(Cl)ccc32)CO4)C1 [Example 350]
30 | 10.46 | 6.73 |  | CCn1ncc(C(=O)N[S@@]2(=O)=NC(=O)c3ccc4c(c3)N(C[C@@H]3CC[C@H]3[C@@H](OC)/C=C/C[C@H](C)C2)C[C@@]2(CCCc3cc(Cl)ccc32)CO4)n1 [Example 422]
31 | 10.34 | 7.26 |  | CO[C@H]1/C=C/C[C@H](C)C[S@@](=O)(NC(=O)N2CC(Oc3cccnc3)C2)=NC(=O)c2ccc3c(c2)N(C[C@@H]2CC[C@H]21)C[C@@]1(CCCc2cc(Cl)ccc21)CO3 [Example 352]
32 | 9.05 | 6.12 |  | CO[C@H]1/C=C/C[C@H](C)C[S@@](=O)(NC(=O)C2CC3(CCC3)C2)=NC(=O)c2ccc3c(c2)N(C[C@@H]2CC[C@H]21)C[C@@]1(CCCc2cc(Cl)ccc21)CO3 [Example 436]
33 | 10.51 | 7.43 |  | CO[C@H]1/C=C/C[C@H](C)C[S@@](=O)(NC(=O)NC23COC(C)(C2)C3)=NC(=O)c2ccc3c(c2)N(C[C@@H]2CC[C@H]21)C[C@@]1(CCCc2cc(Cl)ccc21)CO3 [Example 340]
34 | 10.38 | 7.07 |  | CO[C@H]1/C=C/C[C@H](C)C[S@@](=O)(NC(=O)N2CCN(C(C)=O)CC2)=NC(=O)c2ccc3c(c2)N(C[C@@H]2CC[C@H]21)C[C@@]1(CCCc2cc(Cl)ccc21)CO3 [Example 247]
35 | 10.12 | 7.16 |  | COCC1(COC)Cn2cc(C(=O)N[S@@]3(=O)=NC(=O)c4ccc5c(c4)N(C[C@@H]4CC[C@H]4[C@@H](O)/C=C/C[C@H](C)[C@H]3C)C[C@@]3(CCCc4cc(Cl)ccc43)CO5)cc2CO1 [Example 331]
36 | 10.04 | 7.01 |  | CO[C@H]1/C=C/C[C@H](C)C[S@@](=O)(NC(=O)N[C@H]2C[C@@](O)(C(F)(F)F)C2)=NC(=O)c2ccc3c(c2)N(C[C@@H]2CC[C@H]21)C[C@@]1(CCCc2cc(Cl)ccc21)CO3 [Example 453]
37 | 10.43 | 7.40 |  | COCCOC1CN(C(=O)N[S@@]2(=O)=NC(=O)c3ccc4c(c3)N(C[C@@H]3CC[C@H]3[C@@H](OC)/C=C/C[C@H](C)C2)C[C@@]2(CCCc3cc(Cl)ccc32)CO4)C1 [Example 251]
